From patent publication US20150342899A1 (NOVEN PHARMACEUTICALS, INC., priority 2012, published 2015)

Assay: in vitro flux study with human cadaver skin using a Franz cell apparatus
Type: in vitro ADME
Experimental: An in vitro flux study was conducted with human cadaver skin using a Franz cell apparatus to determine the flux of each drug from the matrix over a 24-hour period.

Row | SMILES | flux of drug from the matrix (transdermal system from polymer matrix of Example 1, about 1.05 mg/cm^2 amphetamine and about 0.28 mg/cm^2 clonidine, 24-hour period, FIG. 1, one sample) | pharmacokinetic (delivery) profile
1 | CC(N)Cc1ccccc1 (stereo not drawn) [amphetamine, alpha-methylphenethylamine] | sufficient to achieve a therapeutic effect | –
2 | Clc1cccc(Cl)c1N=C1NCCN1 [clonidine] | – | delivered over an extended period of time
